Usually inhibition stands for the drop in the measured response relative to a control, in per cent.

Holding throughout (settings): Compound concentration 10 µM
Assay [1] has as its target T1, Alpha-1A adrenergic receptor (Homo sapiens) (UniProt P35348).
T1 sequence (whole entry): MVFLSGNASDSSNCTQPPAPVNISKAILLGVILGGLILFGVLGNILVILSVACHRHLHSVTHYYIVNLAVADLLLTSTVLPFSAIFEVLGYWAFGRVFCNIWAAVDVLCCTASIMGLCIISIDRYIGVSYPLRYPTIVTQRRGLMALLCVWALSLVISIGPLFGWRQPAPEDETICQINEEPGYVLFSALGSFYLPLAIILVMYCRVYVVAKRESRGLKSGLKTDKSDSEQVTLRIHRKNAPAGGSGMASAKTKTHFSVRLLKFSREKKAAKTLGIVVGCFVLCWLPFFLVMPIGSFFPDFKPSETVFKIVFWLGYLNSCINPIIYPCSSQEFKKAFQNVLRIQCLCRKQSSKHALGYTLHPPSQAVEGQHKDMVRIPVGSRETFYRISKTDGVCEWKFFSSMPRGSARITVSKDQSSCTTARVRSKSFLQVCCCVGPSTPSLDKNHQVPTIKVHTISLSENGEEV

Assay [2] deals with T2, Muscarinic acetylcholine receptor M1 (Homo sapiens) (UniProt P11229).
T2 sequence (whole entry): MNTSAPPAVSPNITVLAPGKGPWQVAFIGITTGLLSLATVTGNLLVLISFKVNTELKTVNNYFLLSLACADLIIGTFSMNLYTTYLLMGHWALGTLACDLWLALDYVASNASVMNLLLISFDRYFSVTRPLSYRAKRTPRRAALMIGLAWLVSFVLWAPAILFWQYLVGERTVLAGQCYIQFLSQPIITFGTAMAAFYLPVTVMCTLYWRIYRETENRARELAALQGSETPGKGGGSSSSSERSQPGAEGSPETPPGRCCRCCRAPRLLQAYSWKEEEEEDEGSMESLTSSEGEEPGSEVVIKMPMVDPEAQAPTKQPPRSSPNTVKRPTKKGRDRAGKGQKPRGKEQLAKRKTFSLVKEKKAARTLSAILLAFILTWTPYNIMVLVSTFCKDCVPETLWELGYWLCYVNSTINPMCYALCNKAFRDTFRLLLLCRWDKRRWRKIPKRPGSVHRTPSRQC

Assay [3] concerns the target Muscarinic acetylcholine receptor M3 (Homo sapiens) (UniProt P20309).
In assay [4] the target is D(2) dopamine receptor (Homo sapiens) (UniProt P14416).
Assay [5] deals with D(1B) dopamine receptor (Homo sapiens) (UniProt P21918).
For assay [6], the target named is Histamine H1 receptor (Homo sapiens) (UniProt P35367).
The target of assay [7] is 5-hydroxytryptamine receptor 1B (Homo sapiens) (UniProt P28222).
In assay [8] the target is 5-hydroxytryptamine receptor 2A (Homo sapiens) (UniProt P28223).
Assay [9] has as its target 5-hydroxytryptamine receptor 7 (Homo sapiens) (UniProt P34969).
The target of assay [10] is Delta-type opioid receptor (Homo sapiens) (UniProt P41143).
Assay [11] concerns the target Mu-type opioid receptor (Homo sapiens) (UniProt P35372).
In assay [12] the target is Sigma intracellular receptor 2 (Homo sapiens) (UniProt Q5BJF2).
The target of assay [13] is T3, Alpha-1D adrenergic receptor (Homo sapiens) (UniProt P25100).
T3 sequence (whole entry): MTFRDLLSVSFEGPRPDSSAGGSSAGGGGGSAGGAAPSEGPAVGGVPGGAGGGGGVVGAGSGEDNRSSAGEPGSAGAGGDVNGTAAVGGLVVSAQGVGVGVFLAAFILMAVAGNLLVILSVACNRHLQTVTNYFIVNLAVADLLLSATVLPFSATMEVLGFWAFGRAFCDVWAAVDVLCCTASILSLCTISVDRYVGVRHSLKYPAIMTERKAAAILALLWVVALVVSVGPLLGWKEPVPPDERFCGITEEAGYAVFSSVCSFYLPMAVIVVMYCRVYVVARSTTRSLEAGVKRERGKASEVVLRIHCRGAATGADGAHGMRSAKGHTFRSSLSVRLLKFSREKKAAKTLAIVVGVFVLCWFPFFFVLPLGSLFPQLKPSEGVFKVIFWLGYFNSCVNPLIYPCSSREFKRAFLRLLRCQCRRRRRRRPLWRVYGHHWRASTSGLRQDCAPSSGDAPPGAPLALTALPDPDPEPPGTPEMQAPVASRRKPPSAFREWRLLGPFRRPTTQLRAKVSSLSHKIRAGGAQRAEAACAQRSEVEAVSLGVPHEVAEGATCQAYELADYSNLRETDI

Assay [14] deals with D(3) dopamine receptor (Homo sapiens) (UniProt P35462).
Assay [15] addresses Histamine H4 receptor (Homo sapiens) (UniProt Q9H3N8).
The target of assay [16] is 5-hydroxytryptamine receptor 2B (Homo sapiens) (UniProt P41595).
The target in assay [17] is T4, 5-hydroxytryptamine receptor 3A (Homo sapiens) (UniProt P46098).
T4 sequence (whole entry): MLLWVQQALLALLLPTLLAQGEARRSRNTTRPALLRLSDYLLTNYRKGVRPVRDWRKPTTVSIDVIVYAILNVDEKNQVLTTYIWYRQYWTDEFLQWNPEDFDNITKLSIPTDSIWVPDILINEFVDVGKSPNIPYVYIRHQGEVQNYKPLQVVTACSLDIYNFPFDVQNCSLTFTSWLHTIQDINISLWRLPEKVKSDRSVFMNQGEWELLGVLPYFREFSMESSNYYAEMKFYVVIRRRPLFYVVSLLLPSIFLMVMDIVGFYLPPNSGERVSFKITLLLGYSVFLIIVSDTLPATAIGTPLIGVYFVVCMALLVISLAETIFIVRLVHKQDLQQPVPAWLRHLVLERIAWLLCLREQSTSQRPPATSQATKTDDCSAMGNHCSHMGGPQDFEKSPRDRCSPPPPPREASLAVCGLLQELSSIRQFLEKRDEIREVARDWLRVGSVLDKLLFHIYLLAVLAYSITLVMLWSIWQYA

Assay [18] deals with Sodium-dependent dopamine transporter (Homo sapiens) (UniProt Q01959).

The structures appear in SMILES notation.

Sequence of 5-hydroxytryptamine receptor 2B (Homo sapiens) (P41595 whole entry): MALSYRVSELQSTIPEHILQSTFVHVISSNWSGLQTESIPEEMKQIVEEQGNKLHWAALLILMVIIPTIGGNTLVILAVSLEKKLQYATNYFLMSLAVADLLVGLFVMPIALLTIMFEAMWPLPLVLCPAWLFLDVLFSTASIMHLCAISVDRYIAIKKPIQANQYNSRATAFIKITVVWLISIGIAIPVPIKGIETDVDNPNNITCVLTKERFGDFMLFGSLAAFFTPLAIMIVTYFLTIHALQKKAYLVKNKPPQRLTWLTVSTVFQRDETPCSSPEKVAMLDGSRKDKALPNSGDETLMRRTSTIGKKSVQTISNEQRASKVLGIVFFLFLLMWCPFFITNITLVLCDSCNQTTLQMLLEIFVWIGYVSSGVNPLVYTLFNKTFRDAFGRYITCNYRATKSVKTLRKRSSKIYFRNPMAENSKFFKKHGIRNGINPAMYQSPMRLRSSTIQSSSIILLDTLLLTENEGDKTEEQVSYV
Sequence of D(1B) dopamine receptor (Homo sapiens) (P21918 whole entry): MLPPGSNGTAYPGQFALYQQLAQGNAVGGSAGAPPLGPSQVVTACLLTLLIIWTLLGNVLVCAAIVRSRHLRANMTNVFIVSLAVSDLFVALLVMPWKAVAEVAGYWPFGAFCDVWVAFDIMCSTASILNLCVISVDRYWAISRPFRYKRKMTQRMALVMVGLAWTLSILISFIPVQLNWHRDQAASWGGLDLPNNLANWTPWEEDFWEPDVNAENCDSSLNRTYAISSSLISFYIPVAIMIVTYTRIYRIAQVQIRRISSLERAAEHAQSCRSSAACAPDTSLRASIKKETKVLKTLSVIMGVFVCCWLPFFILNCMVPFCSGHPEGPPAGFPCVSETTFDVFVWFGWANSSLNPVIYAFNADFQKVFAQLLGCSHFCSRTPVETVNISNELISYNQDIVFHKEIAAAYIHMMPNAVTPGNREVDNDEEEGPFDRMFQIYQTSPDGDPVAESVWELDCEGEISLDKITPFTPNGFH
Sequence of Histamine H1 receptor (Homo sapiens) (P35367 whole entry): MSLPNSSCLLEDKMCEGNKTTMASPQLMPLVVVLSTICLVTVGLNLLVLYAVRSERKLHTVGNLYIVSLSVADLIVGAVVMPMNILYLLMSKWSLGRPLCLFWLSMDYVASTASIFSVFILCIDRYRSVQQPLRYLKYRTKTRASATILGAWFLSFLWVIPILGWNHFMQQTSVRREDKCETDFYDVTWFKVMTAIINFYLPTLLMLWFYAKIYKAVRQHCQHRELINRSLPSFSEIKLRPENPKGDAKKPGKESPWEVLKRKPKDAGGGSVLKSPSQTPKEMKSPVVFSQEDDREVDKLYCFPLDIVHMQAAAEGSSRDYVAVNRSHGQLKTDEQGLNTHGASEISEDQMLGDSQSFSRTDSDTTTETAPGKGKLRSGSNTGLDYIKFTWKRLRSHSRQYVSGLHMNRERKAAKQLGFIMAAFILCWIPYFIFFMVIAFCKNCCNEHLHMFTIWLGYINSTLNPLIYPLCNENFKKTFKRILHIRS
Sequence of D(3) dopamine receptor (Homo sapiens) (P35462 whole entry): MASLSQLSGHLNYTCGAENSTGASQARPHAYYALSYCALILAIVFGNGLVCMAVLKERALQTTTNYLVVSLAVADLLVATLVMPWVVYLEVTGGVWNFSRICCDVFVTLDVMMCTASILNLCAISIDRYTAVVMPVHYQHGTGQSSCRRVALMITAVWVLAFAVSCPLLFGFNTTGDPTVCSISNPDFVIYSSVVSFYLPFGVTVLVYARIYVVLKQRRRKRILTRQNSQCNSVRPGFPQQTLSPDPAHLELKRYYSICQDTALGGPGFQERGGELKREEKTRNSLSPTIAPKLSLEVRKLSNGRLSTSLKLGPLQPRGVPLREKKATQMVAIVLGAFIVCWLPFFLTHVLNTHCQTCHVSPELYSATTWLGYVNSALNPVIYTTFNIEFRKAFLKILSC
Sequence of Sodium-dependent dopamine transporter (Homo sapiens) (Q01959 whole entry): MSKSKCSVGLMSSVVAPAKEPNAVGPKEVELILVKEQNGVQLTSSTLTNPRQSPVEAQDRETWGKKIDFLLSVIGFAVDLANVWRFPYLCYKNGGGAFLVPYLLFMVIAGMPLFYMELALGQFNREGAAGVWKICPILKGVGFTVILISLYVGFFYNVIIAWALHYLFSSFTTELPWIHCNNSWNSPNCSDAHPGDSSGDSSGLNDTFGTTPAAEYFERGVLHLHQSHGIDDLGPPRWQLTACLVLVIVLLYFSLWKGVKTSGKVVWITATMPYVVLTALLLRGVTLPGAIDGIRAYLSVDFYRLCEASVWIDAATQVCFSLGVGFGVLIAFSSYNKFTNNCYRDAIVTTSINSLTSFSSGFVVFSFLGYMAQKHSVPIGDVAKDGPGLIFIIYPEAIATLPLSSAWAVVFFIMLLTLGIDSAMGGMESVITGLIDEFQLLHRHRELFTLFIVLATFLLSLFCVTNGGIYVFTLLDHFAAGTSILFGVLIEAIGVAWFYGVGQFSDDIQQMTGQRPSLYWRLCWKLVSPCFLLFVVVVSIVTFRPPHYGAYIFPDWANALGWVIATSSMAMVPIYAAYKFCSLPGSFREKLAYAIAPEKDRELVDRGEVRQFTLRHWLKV
Sequence of 5-hydroxytryptamine receptor 2A (Homo sapiens) (P28223 whole entry): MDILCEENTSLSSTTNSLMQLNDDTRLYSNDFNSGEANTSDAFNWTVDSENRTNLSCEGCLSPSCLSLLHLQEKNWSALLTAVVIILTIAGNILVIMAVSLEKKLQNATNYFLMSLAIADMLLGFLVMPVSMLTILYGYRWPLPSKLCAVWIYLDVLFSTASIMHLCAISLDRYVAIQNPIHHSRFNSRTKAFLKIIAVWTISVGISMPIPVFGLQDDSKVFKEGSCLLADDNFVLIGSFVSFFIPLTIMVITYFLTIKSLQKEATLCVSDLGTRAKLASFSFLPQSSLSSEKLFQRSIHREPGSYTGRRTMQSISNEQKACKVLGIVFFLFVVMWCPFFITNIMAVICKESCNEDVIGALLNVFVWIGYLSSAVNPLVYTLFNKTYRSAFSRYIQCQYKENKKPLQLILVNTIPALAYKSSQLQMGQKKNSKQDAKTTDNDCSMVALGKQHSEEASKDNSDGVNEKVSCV
Sequence of 5-hydroxytryptamine receptor 1B (Homo sapiens) (P28222 whole entry): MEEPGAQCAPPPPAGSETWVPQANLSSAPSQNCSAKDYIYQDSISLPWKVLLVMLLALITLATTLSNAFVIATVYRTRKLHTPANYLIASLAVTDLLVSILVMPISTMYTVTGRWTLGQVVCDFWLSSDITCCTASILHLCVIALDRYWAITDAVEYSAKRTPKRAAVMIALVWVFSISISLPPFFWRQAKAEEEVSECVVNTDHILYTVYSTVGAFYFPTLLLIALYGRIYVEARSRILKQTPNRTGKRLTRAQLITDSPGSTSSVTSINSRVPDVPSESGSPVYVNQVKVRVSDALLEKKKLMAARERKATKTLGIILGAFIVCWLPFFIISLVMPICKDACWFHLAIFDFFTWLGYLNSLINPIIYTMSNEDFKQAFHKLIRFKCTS
Sequence of Mu-type opioid receptor (Homo sapiens) (P35372 whole entry): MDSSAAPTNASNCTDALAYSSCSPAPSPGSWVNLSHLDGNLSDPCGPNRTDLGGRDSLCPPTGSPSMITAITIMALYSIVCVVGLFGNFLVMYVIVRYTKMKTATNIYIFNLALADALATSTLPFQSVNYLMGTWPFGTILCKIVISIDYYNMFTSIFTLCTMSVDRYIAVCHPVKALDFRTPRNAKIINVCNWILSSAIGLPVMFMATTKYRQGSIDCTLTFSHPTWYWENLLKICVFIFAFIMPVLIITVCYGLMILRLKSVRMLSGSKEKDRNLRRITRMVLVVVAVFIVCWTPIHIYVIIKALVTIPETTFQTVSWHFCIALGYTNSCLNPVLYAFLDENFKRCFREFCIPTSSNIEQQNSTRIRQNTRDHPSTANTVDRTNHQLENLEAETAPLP
Sequence of Delta-type opioid receptor (Homo sapiens) (P41143 whole entry): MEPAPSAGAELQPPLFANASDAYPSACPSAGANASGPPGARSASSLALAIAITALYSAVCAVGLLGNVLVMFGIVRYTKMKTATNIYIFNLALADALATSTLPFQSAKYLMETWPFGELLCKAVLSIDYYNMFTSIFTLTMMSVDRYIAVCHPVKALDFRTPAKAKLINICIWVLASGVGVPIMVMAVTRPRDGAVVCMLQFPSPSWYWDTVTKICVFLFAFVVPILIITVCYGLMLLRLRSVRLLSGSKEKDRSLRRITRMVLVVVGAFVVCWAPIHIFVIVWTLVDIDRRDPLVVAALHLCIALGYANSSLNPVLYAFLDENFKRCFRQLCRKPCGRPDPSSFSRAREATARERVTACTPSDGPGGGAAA
Sequence of Muscarinic acetylcholine receptor M3 (Homo sapiens) (P20309 whole entry, looked up): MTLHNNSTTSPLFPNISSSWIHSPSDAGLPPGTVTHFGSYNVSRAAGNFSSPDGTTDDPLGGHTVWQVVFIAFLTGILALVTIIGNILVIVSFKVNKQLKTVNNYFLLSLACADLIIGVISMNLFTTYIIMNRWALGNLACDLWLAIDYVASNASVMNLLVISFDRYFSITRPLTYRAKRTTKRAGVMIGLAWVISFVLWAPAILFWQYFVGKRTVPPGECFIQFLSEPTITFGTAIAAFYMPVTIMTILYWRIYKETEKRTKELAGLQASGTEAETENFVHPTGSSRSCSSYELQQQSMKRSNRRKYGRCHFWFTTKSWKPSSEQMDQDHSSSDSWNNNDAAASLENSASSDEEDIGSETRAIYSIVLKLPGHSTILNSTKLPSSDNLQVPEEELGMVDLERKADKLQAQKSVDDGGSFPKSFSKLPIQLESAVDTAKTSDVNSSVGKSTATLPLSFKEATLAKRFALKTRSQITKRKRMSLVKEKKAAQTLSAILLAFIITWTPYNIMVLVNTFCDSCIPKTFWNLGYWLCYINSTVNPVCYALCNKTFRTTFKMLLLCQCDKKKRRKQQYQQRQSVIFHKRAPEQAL
Sequence of Sigma intracellular receptor 2 (Homo sapiens) (Q5BJF2 whole entry): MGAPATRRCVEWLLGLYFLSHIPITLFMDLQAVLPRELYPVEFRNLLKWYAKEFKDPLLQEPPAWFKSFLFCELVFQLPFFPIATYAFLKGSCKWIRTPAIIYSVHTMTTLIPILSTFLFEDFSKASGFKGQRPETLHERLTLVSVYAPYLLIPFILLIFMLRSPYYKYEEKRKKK

With `CCC[C@H](Oc1cc(C)c(-n2cc(C(F)(F)F)cn2)c(C)c1)c1ccc(C(=O)NCCC(=O)O)cc1`, the inhibition is 8.94% in assay [1]; 28% in [2]; -0.42% in [3]; 8.21% in assay [4]; 11.7% in assay [5]; 7.56% in [6]. Besides, the inhibition in assay [7] was 12.2%; in [8] it was 4.78%; in assay [9], -2.87%; in assay [10] it was 27%; in assay [11] it was 11%; in [12], 2.23%.
On to `O=c1ccn([C@@H]2O[C@H](COP(=O)(O)OP(=O)(O)OP(=O)(O)O)[C@@H](O)[C@H]2O)c(=O)[nH]1`, for which the inhibition in assay [1] was 2.2%; in [13] it was 11.6%; in assay [3] it was 5.24%; in assay [4], 90.1%; in assay [14] it was 22.3%; in assay [5], 20.2%. Further, the inhibition in assay [6] was -0.29%; in assay [15] it was 4.53%; in assay [7], 7.75%; in assay [8], 46.4%; in assay [16], -4.24%; in assay [17] it was -3.36%. Further, the inhibition in assay [9] is 3.3%; in assay [10], -0.41%; in [11], 27.4%; in assay [18], -7.04%; in assay [12] it was 34%.
With `COc1ccc2cc(S(=O)(=O)N[C@H](CC(=O)N[C@H](Cc3ccc(CN4[C@H](C)CCC[C@@H]4C)cc3)C(=O)N(C)C(C)C)c3ccc4c(c3)OCO4)ccc2c1`, the inhibition is 3.26% in assay [1]; 15.9% in [13]; 44.5% in assay [2]; 14.5% in assay [3]; 2.14% in [4]; 26% in assay [14]. For the same compound, the inhibition in assay [6] is 33.1%; in [15] it was 9.34%; in [7] it was 31.1%; in assay [8] it was 28.8%; in [16], 27.5%; in assay [17], 12.8%. Besides, the inhibition in [9] is -0.02%; in [10], 8.79%; in assay [11], 40%; in assay [18], 36.8%; in assay [12], 97.7%.
In the case of `COc1cccc(-c2c(C)n(Cc3c(F)cccc3C(F)(F)F)c(=O)n(C[C@H](NCCCC(=O)O)c3ccccc3)c2=O)c1F`, the inhibition was 7.84% in assay [1]; -7.43% in [13]; 26.2% in assay [2]; -7.5% in assay [3]; 30.2% in assay [4]; 21.6% in assay [14]. Besides, the inhibition was 0.96% in assay [5]; 9.07% in [6]; 15.5% in assay [7]; -2.02% in [8]; -6.96% in assay [16]; 34.2% in assay [9]. For the same compound, the inhibition was 7.27% in assay [10] and 11.9% in [11].
With `Cc1cc([C@@H](C)Nc2cccc(-c3cc(C)c(C(=O)N[C@@H](C)C(=O)O)c(C)c3)c2)ccc1Cl`, the inhibition was 11.3% in [1]; 21.2% in [2]; -4.86% in [3]; 7.32% in assay [4]; 58.6% in assay [14]; 5.13% in assay [5]. In addition, the inhibition in assay [6] was 2.32%; in [7], 12.1%; in assay [8] it was 5.15%; in assay [16] it was 54.5%; in [9] it was 2.27%; in [10] it was 35.9%. The inhibition in assay [11] is 16.5%; in [18], 56.6%.

These data come from ChEMBL document CHEMBL5442219.
